Assay results taken from publication PMC2995015 (Biochemistry, 2010).
Substitutions are numbered along the chain they refer to.

Key:
Format in all cases: cell-based
[1] = target: T1, PMAT mutant Y112W (Homo sapiens, UniProt Q7RTT9, Y112W); assay: Concentration-dependent transport kinetics in stably transfected MDCK cells; settings: for Km / Vmax: Y112W, MDCK cells, 1 min, 37°C
T1 sequence (Q7RTT9 1-530 Y112W): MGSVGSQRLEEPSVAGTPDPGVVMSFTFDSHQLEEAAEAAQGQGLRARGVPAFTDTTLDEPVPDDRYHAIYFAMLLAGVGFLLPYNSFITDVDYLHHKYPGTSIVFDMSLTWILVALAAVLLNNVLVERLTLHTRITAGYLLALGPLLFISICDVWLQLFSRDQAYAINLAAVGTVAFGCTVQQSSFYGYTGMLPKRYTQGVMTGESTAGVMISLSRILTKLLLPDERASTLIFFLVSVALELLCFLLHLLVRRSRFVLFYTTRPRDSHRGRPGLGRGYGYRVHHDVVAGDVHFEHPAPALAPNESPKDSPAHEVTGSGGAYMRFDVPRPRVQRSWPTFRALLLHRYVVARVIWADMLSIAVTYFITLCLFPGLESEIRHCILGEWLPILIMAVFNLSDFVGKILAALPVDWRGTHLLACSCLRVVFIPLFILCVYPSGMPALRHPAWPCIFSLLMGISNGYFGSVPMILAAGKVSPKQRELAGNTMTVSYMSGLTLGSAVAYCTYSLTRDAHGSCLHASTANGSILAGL

[2] = target: T2, PMAT mutant Y85W (Homo sapiens, UniProt Q7RTT9, Y85W); assay: as above; settings: for Km / Vmax: Y85W, MDCK cells, 1 min, 37°C
T2 sequence (Q7RTT9 1-530 Y85W): T1 sequence (Q7RTT9 1-530 Y112W) with Y85W, W112Y

[3] = target: T3, PMAT wild type (Homo sapiens, UniProt Q7RTT9); assay: as above; settings: 1 min, 37°C
T3 sequence (Q7RTT9 1-530): T1 sequence (Q7RTT9 1-530 Y112W) with W112Y

[4] = target: T1, PMAT mutant Y112W; assay: Single-concentration 3H-substrate uptake in stably transfected MDCK cells; settings: MPP+ 1 μM, 5-HT 10 μM, dopamine 10 μM, 4 min, 37°C
[5] = target: T2, PMAT mutant Y85W; assay: Uptake of uridine in the presence of NBMPR in stably transfected MDCK cells; settings: 0.5 μM NBMPR, vs vector-transfected cells
[6] = target: T4, PMAT mutant Y112A (Homo sapiens, UniProt Q7RTT9, Y112A); assay: as above; settings: 0.5 μM NBMPR, vs vector-transfected cells
T4 sequence (Q7RTT9 1-530 Y112A): T1 sequence (Q7RTT9 1-530 Y112W) with W112A

[7] = target: T5, WT PMAT (Homo sapiens, UniProt Q7RTT9); assay: as above; settings: 0.5 μM NBMPR, vs vector-transfected cells
T5 sequence (Q7RTT9 1-530): T1 sequence (Q7RTT9 1-530 Y112W) with W112Y

[8] = target: T2, PMAT mutant Y85W; assay: Uridine inhibition of organic cation transport in stably transfected MDCK cells; settings: uridine 1 mM; data not shown
[9] = target: T6, PMAT mutant Y112S (Homo sapiens, UniProt Q7RTT9, Y112S); assay: Uptake of uridine in the presence of NBMPR in stably transfected MDCK cells; settings: 0.5 μM NBMPR, vs vector-transfected cells
T6 sequence (Q7RTT9 1-530 Y112S): T1 sequence (Q7RTT9 1-530 Y112W) with W112S

[10] = target: T2, PMAT mutant Y85W; assay: Single-concentration 3H-substrate uptake in stably transfected MDCK cells; settings: MPP+ 1 μM, 5-HT 10 μM, dopamine 10 μM, 4 min, 37°C

| Km [1] [µM] | Vmax [1] [nmol/mg protein/min] | Km [2] [µM] | Km [3] [µM] | transport efficiencies, % of the WT PMAT ([1]; Y112W vs WT PMAT) | inhibitory effect on Y85W-mediated organic cations transport [8] | SMILES | activity retained compared to cells expressing WT PMAT [4] | Vmax [2] [nmol/mg protein/min] | Vmax [3] [nmol/mg protein/min] | transport activity for uridine [5] | transport activity for uridine [6] | transport activity for uridine [7] | transport activity for uridine [9] | transport activity compared to WT PMAT [10] | reduction in Vmax ([1]; Y112W vs WT PMAT) [fold] | increase in maximal velocity (Vmax) ([2]; Y85W vs WT PMAT) [fold] | increase in transport efficiency (Vmax/Km) ([2]; Y85W vs WT PMAT) |
| --- | --- | --- | --- | --- | --- | --- | --- | --- | --- | --- | --- | --- | --- | --- | --- | --- | --- |
| 104 ± 13.2 | 1.04 ± 0.13 | 308 ± 50.8 | 168 ± 18.9 |  |  | NCCc1c[nH]c2ccc(O)cc12 [Serotonin, serotonin] |  |  |  |  |  |  |  |  |  |  |  |
| 88 ± 6.8 | 1.03 ± 0.09 | 243 ± 30.4 | 244 ± 16.2 | 60–70% |  | NCCc1ccc(O)c(O)c1 [Dopamine, dopamine] | 50–60% | 3.87 ± 0.14 | 4.12 ± 0.35 |  |  |  |  |  |  |  |  |
|  |  |  |  |  | no significant inhibitory effect | O=c1ccn([C@@H]2O[C@H](CO)[C@@H](O)[C@H]2O)c(=O)[nH]1 [uridine] |  |  |  | no statistically significant transport activity | no statistically significant transport activity | no statistically significant transport activity | no statistically significant transport activity |  |  |  |  |

| SMILES | Km [1] [µM] | Vmax [1] [nmol/mg protein/min] | Km [2] [µM] | Km [3] [µM] | transport efficiencies, % of the WT PMAT ([1]; Y112W vs WT PMAT) | inhibitory effect on Y85W-mediated organic cations transport [8] | activity retained compared to cells expressing WT PMAT [4] | Vmax [2] [nmol/mg protein/min] | Vmax [3] [nmol/mg protein/min] | transport activity for uridine [5] | transport activity for uridine [6] | transport activity for uridine [7] | transport activity for uridine [9] | transport activity compared to WT PMAT [10] | reduction in Vmax ([1]; Y112W vs WT PMAT) [fold] | increase in maximal velocity (Vmax) ([2]; Y85W vs WT PMAT) [fold] | increase in transport efficiency (Vmax/Km) ([2]; Y85W vs WT PMAT) |
| --- | --- | --- | --- | --- | --- | --- | --- | --- | --- | --- | --- | --- | --- | --- | --- | --- | --- |
| C[n+]1ccc(-c2ccccc2)cc1 [MPP^+, 1-methyl-4-phenylpyridinium] | 147 ± 36.3 | 0.23 ± 0.02 | 31.1 ± 6.9 | 42.2 ± 5 |  |  | less than 20% | 0.94 ± 0.10 | 0.60 ± 0.04 |  |  |  |  | significantly higher transport activity | 2.6 | 1.6 | about 2 fold |
